Where two headings read alike, the source gives them in different places. Each block holds one compound with its values, some of them ahead of it.
Legend:
[1] = tested on: CHO-K1; test: Sulforhodamine B cytotoxicity assay, CHO-K1; assay type: cell-based, chinese hamster; details: 48 h, mean ± SE, non-malignant cells
Protocol: (§1) Two colon cancer cells (SW480 and SW620) and non-malignant cell lines (human keratinocytes, HaCaT; chinese hamster ovary, CHO-K1) were obtained from The European Collection of Authenticated Cell Cultures (ECACC, England). For biological evaluations, cells were cultured in Dulbecco’s Modified Eagle Medium, supplemented with 10% heat-inactivated (56 °C) horse serum, 1% penicillin/streptomycin and 1% non-essential amino acids (Gibco Invitrogen, Carlsbad, CA, USA). During the treatments, the serum was reduced to 3%, and the medium was supplemented with insulin ([…]) transferrin ([…]) and selenium (5 ng/mL) (ITS-defined medium; Gibco, Invitrogen, Carlsbad, USA). To avoid Mycoplasma spp. contamination, cell cultures were regularly tested by polymerase chain reaction.
(§2) Briefly, cells were seeded at 20,000 cells/well (for cytotoxicity assay) and 2500 cells/well (for the antiproliferative test) in 96-well tissue culture plates, incubating at 37 °C in a humidified atmosphere with 5% CO2. After the adaptation time (24 h), cells were treated with increasing concentrations of the hybrid molecules or DMSO (1%). At the end of each treatment, cells were fixed with trichloroacetic acid (50% v/v; MERCK) for one hour at 4 °C. Subsequently, cell proteins were stained with SRB (0.4% w/v; Sigma-Aldrich, United States) and washed with acetic acid (1%). After drying at room temperature, Tris-base (10 mM) was added to solubilize protein bound stain. Absorbance was read in a microplate reader (Mindray MR-96A) at 492 nm. All experiments were performed at least in duplicate.

[2] = tested on: SW480; test: Sulforhodamine B cytotoxicity assay, SW480; assay type: cell-based, human; details: 48 h; for IC50: mean ± SE
Protocol: as §1, §2

[3] = tested on: HaCaT; test: Sulforhodamine B cytotoxicity assay, HaCaT; assay type: cell-based, human; details: 48 h, mean ± SE, non-malignant cells
Protocol: as §1, §2

[4] = tested on: SW620; test: Sulforhodamine B cytotoxicity assay, SW620; assay type: cell-based, human; details: 48 h; for IC50: mean ± SE
Protocol: as §1, §2

[5] = tested on: human gastric cancer cell line (SGC-7901); set-up: method as in doi:10.1039/C6MD00268D; details: cited from earlier work
[6] = tested on: normal VERO cells; details: cited from earlier work

Compound: 5-fluoro-1-((1-(3-((5-hydroxy-3-(4-hydroxyphenyl)-4-oxo-4H-chromen-7-yl)oxy)octyl)-1H-1,2,3-triazol-4-yl)methyl)pyrimidine-2,4(1H,3H)-dione [4f]
IC50 [1]: > 100 µM
Selectivity Index (SI) CHO-K1/SW480 [2]: >1.02
Selectivity Index (SI) HaCaT/SW480 [2]: 0.51
IC50 [2]: 97.5 ± 5.04 µM
IC50 [3]: 50 ± 7.17 µM
Selectivity Index (SI) CHO-K1/620 [4]: >2.11
Selectivity Index (SI) HaCaT/SW620 [4]: 1.05
IC50 [4]: 47.4 ± 2.19 µM

Compound: O=C(Cn1cc(F)c(=O)[nH]c1=O)OCC[n+]1ccc(/C=C/c2c[nH]c3ccccc23)cc1 [C1]
selectivity index SGC-7901 versus GES-1 ([5]; at the concentration of 10 µM): 1.16

Compound: O=C(Cn1cc(F)c(=O)[nH]c1=O)NCC[n+]1ccc(/C=C/c2c[nH]c3ccccc23)cc1 [C2]
selectivity index SGC-7901 versus GES-1 ([5]; at 50 µM): 1.20
selectivity index SGC-7901 versus GES-1 ([5]; at the concentration of 10 µM): 1.08

Compound: 5-fluoro-1-((1-(3-((5-hydroxy-3-(4-hydroxyphenyl)-4-oxo-4H-chromen-7-yl)oxy)pentyl)-1H-1,2,3-triazol-4-yl)methyl)pyrimidine-2,4(1H,3H)-dione [4d]
IC50 [1]: > 100 µM
IC50 [2]: > 100 µM
IC50 [3]: > 100 µM
IC50 [4]: > 100 µM

Compound: O=c1c(-c2ccc(O)cc2)coc2cc(O)cc(O)c12 [Genistein]
IC50 ([1]; Cricetulus griseus, CHO-K1): 48.4 ± 4.13 µM
Selectivity Index (SI) CHO-K1/SW480 [2]: 1.01
Selectivity Index (SI) HaCaT/SW480 [2]: 0.95
IC50 ([2]; Homo sapiens, SW480): 48.1 ± 3.03 µM
IC50 ([3]; Homo sapiens, HaCaT): 45.9 ± 1.97 µM
Selectivity Index (SI) CHO-K1/620 [4]: 0.64
Selectivity Index (SI) HaCaT/SW620 [4]: 0.63
IC50 ([4]; Homo sapiens, SW-620): 75.8 ± 5.83 µM

Compound: 5-fluoro-1-((1-(3-((5-hydroxy-3-(4-hydroxyphenyl)-4-oxo-4H-chromen-7-yl)oxy)dodecyl)-1H-1,2,3-triazol-4-yl)methyl)pyrimidine-2,4(1H,3H)-dione
IC50 [1]: > 100 µM
IC50 [2]: > 100 µM
IC50 [3]: > 100 µM
Selectivity Index (SI) CHO-K1/620 [4]: >1.20
Selectivity Index (SI) HaCaT/SW620 [4]: >1.20
IC50 [4]: 83.6 ± 8.05 µM

Compound: O=c1[nH]cc(F)c(=O)[nH]1 [5-FU, 5-fluorouracil]
selectivity index SGC-7901 versus GES-1 ([5]; at 50 µM): 0.88
selectivity index SGC-7901 versus GES-1 ([5]; at the concentration of 10 µM): 0.74
Selectivity Index (SI) CHO-K1/SW480 [2]: 0.99
Selectivity Index (SI) HaCaT/SW480 [2]: 0.68
IC50 [6]: 3.33 µM

Compound: 5-fluoro-1-((1-(3-((5-hydroxy-3-(4-hydroxyphenyl)-4-oxo-4H-chromen-7-yl)oxy)hexyl)-1H-1,2,3-triazol-4-yl)methyl)pyrimidine-2,4(1H,3H)-dione [4e]
IC50 [1]: > 100 µM
IC50 [2]: > 100 µM
IC50 [3]: > 100 µM
IC50 [4]: > 100 µM

melting point: 175 to 178 °C
Compound: O=c1[nH]c(=O)n(Cc2cn(CCCOc3cc(O)c4c(=O)c(-c5ccc(O)cc5)coc4c3)nn2)cc1F [4b, 5-fluoro-1-((1-(3-((5-hydroxy-3-(4-hydroxyphenyl)-4-oxo-4H-chromen-7-yl)oxy)propyl)-1H-1,2,3-triazol-4-yl)methyl)pyrimidine-2,4(1H,3H)-dione]
IC50 ([1]; Cricetulus griseus, CHO-K1): > 100 µM
IC50 ([2]; Homo sapiens, SW480): > 100 µM
IC50 ([3]; Homo sapiens, HaCaT): > 100 µM
IC50 ([4]; Homo sapiens, SW-620): > 100 µM

Compound: 5-fluoro-1-((1-(3-((5-hydroxy-3-(4-hydroxyphenyl)-4-oxo-4H-chromen-7-yl)oxy)butyl)-1H-1,2,3-triazol-4-yl)methyl)pyrimidine-2,4(1H,3H)-dione [4c]
IC50 [1]: > 100 µM
IC50 [2]: > 100 µM
IC50 [3]: > 100 µM
IC50 [4]: > 100 µM

— publication PMC9606943, “Synthesis and Chemopreventive Potential of 5-FU/Genistein Hybrids on Colorectal Cancer Cells” (Pharmaceuticals, 2022)
